Results reported in PubChem BioAssay AID651569 (Sanford-Burnham Center for Chemical Genomics, 2012).
The source made the active and inactive calls. No rule for the calls is given here.

Test system: luminescent cytotoxicity (cell viability) counter-screen
Experiment: cytotoxicity of Gli-SUFU antagonist hits, dose response, cytotoxicity control for Gli-SUFU antagonist project, cell-based, luminescence, uHTS hits (AID 651569);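 also: compound exposure lasted overnight before the viability readout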

Row | Structure (SMILES) | IC50
1 | N=c1c(-c2nc3ccccc3[nH]2)cc(C(=O)c2ccco2)nn1-c1ccccc1 | > 20 µM (inactive)
2 | COc1ccccc1C(=O)NC(=S)/C=C1/N(C)c2ccccc2C1(C)C | > 20 µM (inactive)
3 | CCOc1ccc(OCc2ccc(C(=O)NN=Cc3ccc[nH]3)cc2)cc1 | 19.3 µM
4 | C=CCn1c(O)c(N=NC(=S)Nc2cccc(C)c2)c2ccccc21 | > 20 µM (inactive)
5 | CC(=O)Nc1ccc(S(=O)(=O)N(Cc2ccccc2)C(C)C)cc1 | > 20 µM (inactive)
6 | CCCCCCCNC1=CC(=O)CC(c2ccccc2)C1 (configuration not stated) | 16.5 µM
7 | CC(C)(C)[C@H]1COC(=O)[C@H](NC(=O)OCC2c3ccccc3-c3ccccc32)C/C=C\C[C@@H](CC(=O)N[C@@H](CO)Cc2ccccc2)C(=O)N1 | > 20 µM (inactive)
8 | Fc1ccc(-n2nnnc2-c2cnc(-c3cccs3)nc2C(F)(F)F)cc1 | 17 µM
9 | CC1CCN(c2c(NCc3ccc(C(=O)N4c5ccccc5CC4C)cc3)c(=O)c2=O)CC1 (configuration not stated) | > 20 µM (inactive)
10 | Cc1sc2ncnc(NCC(C)(C)N3CCOCC3)c2c1C | > 20 µM (inactive)
11 | CC1Sc2n(c3ccccc3[n+]2C)N=C1c1ccccc1 (configuration not stated) | > 20 µM (inactive)
12 | C#CC[N+](C)(C)CCCCCCCCCCCC | > 20 µM (inactive)
13 | COc1ccc(CNc2cc(C)nc3ncnn23)c(OC)c1 | > 20 µM (inactive)
14 | CCCOc1ccc(Br)cc1CSC(=N)N | 8.78 µM
15 | CC(CC(=O)N1CCN(c2cccc(Cl)c2)CC1)S(=O)(=O)c1ccc2c(c1)NC(=O)CO2 (configuration not stated) | > 20 µM (inactive)
16 | O=C(Cn1cc(C(=O)c2ccco2)c2ccccc21)Nc1ccccc1F | > 20 µM (inactive)
17 | CCC(=O)c1ccc(OCC(O)Cn2c(C)nc3ccccc32)cc1 (configuration not stated) | > 20 µM (inactive)
18 | CC(C)(C)c1ccc(C(=O)NC(=S)Nc2ccc(N3CCOCC3)cc2)cc1 | > 20 µM (inactive)
19 | CCOc1ccc(-c2nc(CSCC(=O)NCC3CCCO3)c(C)o2)cc1 (configuration not stated) | > 20 µM (inactive)
20 | CCOC(=O)c1ccc(NC(=O)Cn2cnc3cc(C)c(C)cc32)cc1 | > 20 µM (inactive)
21 | CN(Cc1ccc(OCC(O)CN2CCCCC2)cc1)Cc1ccnc2ccccc12 (configuration not stated) | > 20 µM (inactive)
22 | Cc1cc(Nc2ccc([N+](=O)[O-])cc2)c2ccccc2n1 | > 20 µM (inactive)
23 | COCCn1c(CN2CCC(Cc3ccccc3)CC2)nc2c1c(=O)n(C)c(=O)n2C | > 20 µM (inactive)

Row | Structure (SMILES) | IC50
24 | COc1ccc(CNc2ncnc3c2[nH]c2ccccc23)cc1 | > 20 µM (inactive)
25 | CCOc1ccc(S(=O)(=O)NCc2ccncc2)cc1NC(=O)c1ccccc1 | > 20 µM (inactive)
26 | Cc1sc2ncnc(N3CCN(S(=O)(=O)c4ccc(C(C)(C)C)cc4)CC3)c2c1C | > 20 µM (inactive)
27 | COc1ccccc1CCNC(=O)C(=O)NCCC1CCCCN1S(=O)(=O)c1cccs1 (configuration not stated) | 13.1 µM
28 | CCOC(=O)N1CCN(C(=O)c2cc(COc3ccc4ncccc4c3)on2)CC1 | > 20 µM (inactive)
29 | COc1ccc(Nc2nc(N3CCOCC3)nc(N3CCOCC3)n2)c(OC)c1 | > 20 µM (inactive)
30 | COCCNc1nc2c(c(=O)n(C)c(=O)n2C)n1Cc1cccc(C(F)(F)F)c1 | 12.4 µM
31 | CCCCCCCN1C2=NCCCN2c2ccccc21 | > 20 µM (inactive)
32 | c1ccc(-c2c[n+]3c(n2-c2ccccc2)SCC3)cc1 | > 20 µM (inactive)
33 | Cc1ccc(NC(=O)/C=C/c2ccco2)cc1S(=O)(=O)N1CCCCCC1 | 6.1 µM
34 | COc1ccc(N2CCN(c3ncnc4c3[nH]c3ccccc34)CC2)cc1 | > 20 µM (inactive)
35 | CC(=O)c1c(C)[nH]c(C(=O)OCC(=O)Nc2cccc(S(=O)(=O)N3CCCC3)c2)c1C | > 20 µM (inactive)
36 | CCOC(=O)c1c(NC(=O)C(=O)N/N=C/c2ccccc2O)sc2c1CCCCC2 | 19 µM
37 | Cc1nn(Cc2noc(C(=O)NC3CCC(C)CC3)n2)c(C)c1Br (configuration not stated) | > 20 µM (inactive)
38 | Cc1cc(N/N=C/c2ccc(O)cc2O)nc(-n2nc(C)cc2C)n1 | > 20 µM (inactive)
39 | Cc1cc(/C=N/n2cnnc2)c(C)n1-c1ccc(OCc2ccccc2F)cc1 | 16.3 µM
40 | COc1cccc(CN(C)C(=O)c2cc(COc3ccc4ncccc4c3)on2)c1 | > 20 µM (inactive)
41 | CN1/C(=C\C=N\NC(=O)c2ccc(O)cc2)C(C)(C)c2ccccc21 | 4.84 µM
42 | CC(=O)c1ccc(N2CCN(c3ccc(C(F)(F)F)cn3)CC2)cc1 | > 20 µM (inactive)
43 | COc1ccccc1CCNC(=O)c1cc(-c2ccncc2)nc2ccc(Br)cc12 | > 20 µM (inactive)
44 | O=C(Nc1nc(-c2cccs2)cs1)c1cccc(S(=O)(=O)N2CCCCCC2)c1 | > 20 µM (inactive)
45 | CCC(C(=O)NCCC(C)C)n1ccc2cc(S(=O)(=O)N3CCCCC3)ccc21 (configuration not stated) | > 20 µM (inactive)
46 | c1ccc(-c2c[n+]3c(n2-c2ccccc2)CCC3)cc1 | > 20 µM (inactive)

Row | Structure (SMILES) | IC50
47 | O=C(c1cc2nc(-c3ccc(F)cc3)cc(C(F)(F)F)n2n1)N1CCCCC1c1cccnc1 (configuration not stated) | > 20 µM (inactive)
48 | CN(Cc1ccc(OC(F)F)cc1)C(=O)c1cccc(S(=O)(=O)N2CCN(Cc3ccccc3)CC2)c1 | > 20 µM (inactive)
49 | CCN1CCCC1CNc1ncnc2c1[nH]c1ccc(Cl)cc12 (configuration not stated) | > 20 µM (inactive)
50 | Cc1nn(C)c(C(=O)NCc2ccc(Cl)cc2)c1Cl | > 20 µM (inactive)
51 | O=C(N[C@H]1C/C=C\C[C@@H](CC(=O)N(CCO)Cc2ccccc2)C(=O)NC[C@H](c2ccccc2)OC1=O)OCC1c2ccccc2-c2ccccc21 | > 20 µM (inactive)
52 | Cc1ccc(-c2csc(NC(=O)c3c(C)noc3C)n2)s1 | > 20 µM (inactive)
53 | CN1/C(=C\C(=O)COC(=O)CNC(=O)c2ccc3ccccc3c2)C(C)(C)c2ccccc21 | > 20 µM (inactive)
54 | CC(=O)c1cn(CCOc2ccccc2C)c2ccccc12 | > 20 µM (inactive)
55 | CCOc1ccc2[nH]c3c(N4CCN(C(=O)c5ccco5)CC4)ncnc3c2c1 | > 20 µM (inactive)
56 | CC(=O)Nc1cccc(OCC(=O)/C=C2\N(C)c3ccccc3C2(C)C)c1 | > 20 µM (inactive)
57 | O=C(N[C@@H]1C/C=C\C[C@@H](CC(=O)N(CCO)Cc2ccccc2)C(=O)N[C@@H](c2ccccc2)COC1=O)OCC1c2ccccc2-c2ccccc21 | > 20 µM (inactive)
58 | CCC(C)NC(=O)CCC(=O)OC1O[C@H]2OC3(C)CC[C@H]4[C@H](C)CCC(C1C)C24OO3 (some centres not stated) | > 20 µM (inactive)
59 | Cc1nnsc1C(=O)NC1CCCc2c1cnn2-c1ccc(F)cc1F (configuration not stated) | > 20 µM (inactive)
60 | Cc1sc2ncnc(NCc3cccs3)c2c1C | > 20 µM (inactive)
61 | Clc1ccc(-c2c[n+](Cc3ccc(Cl)cc3Cl)c3n2CCCCC3)cc1 | 9.17 µM
62 | COc1ccc(-c2nn(-c3ccccc3)cc2/C=N/NC(=O)c2ccc(Br)o2)cc1 | > 20 µM (inactive)
63 | CC(C)CC(NC(=O)CCCNC(=O)CCC(=O)OC1O[C@H]2OC3(C)CC[C@H]4[C@H](C)CCC(C1C)C24OO3)C(=O)O (some centres not stated) | > 20 µM (inactive)
64 | C=C(C)CSc1nc2sc3c(c2c(=O)n1C1CCCCC1)CCN(C)C3 | > 20 µM (inactive)
65 | CCCN(CCC)CCNC(=O)c1cc2c(=O)n(C)c3ccccc3c2n1C | > 20 µM (inactive)
66 | CCC(CC)CN1C(N(C)C)=NC[C@@H]1CC(C)C | > 20 µM (inactive)
67 | O=C(Cn1c(-c2ccccc2)c[n+]2ccsc12)c1ccc(Br)cc1 | > 20 µM (inactive)
68 | Cc1ccc(OCCN2CCN(c3ncnc4sc(C)c(C)c34)CC2)cc1 | > 20 µM (inactive)
69 | CCNc1nc(CN2CCCCC2)nc2scc(-c3ccccc3)c12 | 15.6 µM

Row | Structure (SMILES) | IC50
70 | C=CCNc1nc2c(c(=O)n(C)c(=O)n2C)n1Cc1ccc(F)cc1 | > 20 µM (inactive)
71 | COc1ccc(NS(=O)(=O)c2ccc(NC(C)=O)cc2)cc1OC | > 20 µM (inactive)
72 | Cc1cc(/C=C2/SC(=S)N(c3ccc([N+](=O)[O-])cc3)C2=O)c(C)n1-c1cccnc1 | > 20 µM (inactive)
73 | COc1cc(NS(=O)(=O)c2ccc(C)cc2C)cc(OC)c1OC | 16 µM
74 | CC(=O)c1c(C)[nH]c(C(=O)OCC(=O)Nc2sc3c(c2C#N)CCCC3)c1C | > 20 µM (inactive)
75 | C=CCOc1nc2c(c(=O)n(C)c(=O)n2C)n1Cc1ccc(Cl)cc1Cl | > 20 µM (inactive)
76 | Cc1ccc(-c2c[n+](Cc3ccc(Cl)c(Cl)c3)c3n2CCC3)cc1 | 13.7 µM
77 | COc1cc(C(=O)NC2CCN(C)CC2)ccc1Nc1ncc2c(n1)N(Cc1ccccc1)CCC(=O)N2C | > 20 µM (inactive)
78 | Cc1cc(C)c(C)c(S(=O)(=O)N2CCN(c3ncnc4ccccc34)CC2)c1C | > 20 µM (inactive)
79 | CC(=O)c1ccc(-n2cc(-c3ccc(C(C)(C)C)cc3)[n+]3c2SCCC3)cc1 | > 20 µM (inactive)
80 | O=C(/C=C/c1ccco1)Nc1ccc(-c2nc3ccccc3[nH]2)cc1 | > 20 µM (inactive)
81 | CCN(CC)S(=O)(=O)c1ccc(C)c(NC(=S)N2CCN(Cc3ccc4c(c3)OCO4)CC2)c1 | > 20 µM (inactive)
82 | O=C(N[C@@H]1C/C=C\C[C@H](CC(=O)N(CCO)Cc2ccccc2)C(=O)NC[C@@H](c2ccccc2)OC1=O)OCC1c2ccccc2-c2ccccc21 | > 20 µM (inactive)
83 | Cc1cc(NC(=O)CSc2nc3c([nH]c4ccccc43)c(=O)n2-c2ccccc2F)no1 | > 20 µM (inactive)
84 | COc1ccc(-c2c(C#N)c(N)nc3c2CCc2ccccc2-3)cc1OC | 8.1 µM
85 | COc1ccc(NS(=O)(=O)c2cccc(NC(=O)c3ccc(S(=O)(=O)N4CCCCCC4)cc3)c2)cc1 | > 20 µM (inactive)
86 | NC(=O)CC(NC(=O)c1ccccc1)c1ccc(N2CCCCCC2)c([N+](=O)[O-])c1 (configuration not stated) | > 20 µM (inactive)
87 | CC(C)(C)OC(=O)NCCCCCc1cn(CC(=O)NCCCCCCCCCCC(=O)N2CCN(C(=O)OC(C)(C)C)CC2)nn1 | > 20 µM (inactive)
88 | CC1=CC(C)C2(COC(c3ccc[n+](C)c3)OC2)C(C)C1 (configuration not stated) | > 20 µM (inactive)
89 | CC(=O)c1c(C)[nH]c(C(=O)OCC(=O)Nc2ccc(C)cc2[N+](=O)[O-])c1C | 18.9 µM
90 | Cc1ccc(OCCOC(=O)c2cc(S(=O)(=O)N3CCCCC3)ccc2N2CCOCC2)cc1 | > 20 µM (inactive)
91 | O=C(N[C@H]1C/C=C\C[C@@H](CC(=O)N(CCO)Cc2ccccc2)C(=O)N[C@H](Cc2c[nH]c3ccccc23)COC1=O)OCC1c2ccccc2-c2ccccc21 | > 20 µM (inactive)
92 | Cc1cc(C)c(C(N)=O)c(SCC(=O)c2cc(C)n(-c3cc(C)on3)c2C)n1 | > 20 µM (inactive)
